# Source: patent US4401604A, “Process for preparing thiosulfenamide derivatives of N-phosphonomethylglycine triesters” (Monsanto Company, priority 1981, dated 1983)
# Columns and labels:
# Format in all cases: in vivo
# [1] = test system: Barnyardgrass; assay: Post-emergence herbicidal activity, greenhouse; details: 4 WAT
# How it was run: (§1)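 Plants grown 2–3 weeks in greenhouse soil pans, then atomizer-sprayed with candidate in solvent/water spray containing ~0.4% emulsifier (butylamine dodecylbenzene sulfonate/tall oil ethoxylate) at stated application rates. Injury scored versus unsprayed controls at ~2 and 4 weeks after treatment, as an activity index.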
# [2] = test system: Canada Thistle; assay: Post-emergence herbicidal activity, greenhouse; details: Table I, 4 WAT
# How it was run: as §1
# [3] = test system: Cocklebur; assay: Post-emergence herbicidal activity, greenhouse; details: 4 WAT
# How it was run: as §1
# [4] = test system: Crabgrass; assay: Post-emergence herbicidal activity, greenhouse; details: Table II, 4 WAT
# How it was run: as §1
# [5] = test system: Downy Brome; assay: Post-emergence herbicidal activity, greenhouse; details: 4 WAT
# How it was run: as §1
# [6] = test system: Hemp Sesbania; assay: Post-emergence herbicidal activity, greenhouse; details: Table II, 4 WAT
# How it was run: as §1
# [7] = test system: Johnsongrass; assay: Post-emergence herbicidal activity, greenhouse; details: Table I, 4 WAT
# How it was run: as §1
# [8] = test system: Lambsquarters; assay: Post-emergence herbicidal activity, greenhouse; details: 4 WAT
# How it was run: as §1
# [9] = test system: Morningglory; assay: Post-emergence herbicidal activity, greenhouse; details: 4 WAT
# How it was run: as §1
# [10] = test system: Panicum Spp; assay: Post-emergence herbicidal activity, greenhouse; details: Table II, 4 WAT
# How it was run: as §1
# [11] = test system: Quackgrass; assay: Post-emergence herbicidal activity, greenhouse; details: Table I, 4 WAT
# How it was run: as §1
# [12] = test system: Rice; assay: Post-emergence herbicidal activity, greenhouse; details: Table II, 4 WAT
# How it was run: as §1
# [13] = test system: Smartweed; assay: Post-emergence herbicidal activity, greenhouse; details: 4 WAT
# How it was run: as §1
# [14] = test system: Sorghum; assay: Post-emergence herbicidal activity, greenhouse; details: Table II, 4 WAT
# How it was run: as §1
# [15] = test system: Soybean; assay: Post-emergence herbicidal activity, greenhouse; details: Table II, 4 WAT
# How it was run: as §1
# [16] = test system: Sugar Beet; assay: Post-emergence herbicidal activity, greenhouse; details: Table II, 4 WAT
# How it was run: as §1
# [17] = test system: Velvetleaf; assay: Post-emergence herbicidal activity, greenhouse; details: 4 WAT
# How it was run: as §1
# [18] = test system: Wheat; assay: Post-emergence herbicidal activity, greenhouse; details: Table II, 4 WAT
# How it was run: as §1
# [19] = test system: Wild Buckwheat; assay: Post-emergence herbicidal activity, greenhouse; details: Table II, 4 WAT
# How it was run: as §1
# [20] = test system: Yellow Nutsedge; assay: Post-emergence herbicidal activity, greenhouse; details: Table I, 4 WAT
# How it was run: as §1
# [21] = test system: Barnyardgrass; assay: Pre-emergent herbicidal activity; details: Table III; 11.2 kg/h; 2 WAT
# How it was run: (§2)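 Seeds or vegetative propagules were pressed onto compacted top soil, then covered with soil premixed with a known amount of active ingredient. Pans were bottom-watered and kept on a wet sand bench in ordinary sunlight for about two weeks. Emerged plants were counted against untreated controls and scored as an index of average percent control.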
# [22] = test system: Canada Thistle; assay: Pre-emergent herbicidal activity; details: Table III; 11.2 kg/h; 2 WAT
# How it was run: as §2
# [23] = test system: Cocklebur; assay: Pre-emergent herbicidal activity; details: Table III; 11.2 kg/h; 2 WAT
# How it was run: as §2
# [24] = test system: Downy Brome; assay: Pre-emergent herbicidal activity; details: Table III; 11.2 kg/h; 2 WAT
# How it was run: as §2
# [25] = test system: Johnsongrass; assay: Pre-emergent herbicidal activity; details: Table III; 11.2 kg/h; 2 WAT
# How it was run: as §2
# [26] = test system: Lambsquarters; assay: Pre-emergent herbicidal activity; details: Table III; 11.2 kg/h; 2 WAT
# How it was run: as §2
# [27] = test system: Morningglory; assay: Pre-emergent herbicidal activity; details: Table III; 11.2 kg/h; 2 WAT
# How it was run: as §2
# [28] = test system: Quackgrass; assay: Pre-emergent herbicidal activity; details: Table III; 11.2 kg/h; 2 WAT
# How it was run: as §2
# [29] = test system: Smartweed; assay: Pre-emergent herbicidal activity; details: Table III; 11.2 kg/h; 2 WAT
# How it was run: as §2
# [30] = test system: Velvetleaf; assay: Pre-emergent herbicidal activity; details: Table III; 11.2 kg/h; 2 WAT
# How it was run: as §2
# [31] = test system: Yellow Nutsedge; assay: Pre-emergent herbicidal activity; details: Table III; 11.2 kg/h; 2 WAT
# How it was run: as §2
compound,measurement,setting,value
"CCCCCCCCSSN(CC(=O)OC)CP(=O)(Oc1ccccc1)Oc1ccccc1 [II, Glycine, N-[(diphenoxyphosphinyl)methyl]-N-(octyldithio)-, methyl ester]",post-emergence herbicidal activity index,"[1]; Table I, 5.6 kg/h",2 (50-74% control)
same,post-emergence herbicidal activity index,"[1]; Table I, 11.2 kg/h",2 (50-74% control)
same,post-emergence herbicidal activity index,"[1]; Table II, 0.28 kg/h",0 (0- 24% control)
same,post-emergence herbicidal activity index,"[1]; Table II, 1.12 kg/h",1 (25-49% control)
same,post-emergence herbicidal activity index,"[1]; Table II, 5.6 kg/h",3 (75-99% control)
same,post-emergence herbicidal activity index,[2]; 5.6 kg/h,0 (0- 24% control)
same,post-emergence herbicidal activity index,[2]; 11.2 kg/h,1 (25-49% control)
same,post-emergence herbicidal activity index,"[3]; Table I, 5.6 kg/h",4 (100% control)
same,post-emergence herbicidal activity index,"[3]; Table I, 11.2 kg/h",3 (75-99% control)
same,post-emergence herbicidal activity index,"[3]; Table II, 0.28 kg/h",0 (0- 24% control)
same,post-emergence herbicidal activity index,"[3]; Table II, 1.12 kg/h",1 (25-49% control)
same,post-emergence herbicidal activity index,"[3]; Table II, 5.6 kg/h",3 (75-99% control)
same,post-emergence herbicidal activity index,[4]; 0.28 kg/h,0 (0- 24% control)
same,post-emergence herbicidal activity index,[4]; 1.12 kg/h,2 (50-74% control)
same,post-emergence herbicidal activity index,[4]; 5.6 kg/h,4 (100% control)
same,post-emergence herbicidal activity index,"[5]; Table I, 5.6 kg/h",2 (50-74% control)
same,post-emergence herbicidal activity index,"[5]; Table I, 11.2 kg/h",1 (25-49% control)
same,post-emergence herbicidal activity index,"[5]; Table II, 0.28 kg/h",0 (0- 24% control)
same,post-emergence herbicidal activity index,"[5]; Table II, 1.12 kg/h",0 (0- 24% control)
same,post-emergence herbicidal activity index,"[5]; Table II, 5.6 kg/h",2 (50-74% control)
same,post-emergence herbicidal activity index,[6]; 0.28 kg/h,0 (0- 24% control)
same,post-emergence herbicidal activity index,[6]; 1.12 kg/h,0 (0- 24% control)
same,post-emergence herbicidal activity index,[6]; 5.6 kg/h,1 (25-49% control)
same,post-emergence herbicidal activity index,[7]; 5.6 kg/h,3 (75-99% control)
same,post-emergence herbicidal activity index,[7]; 11.2 kg/h,3 (75-99% control)
same,post-emergence herbicidal activity index,"[8]; Table I, 5.6 kg/h",3 (75-99% control)
same,post-emergence herbicidal activity index,"[8]; Table I, 11.2 kg/h",4 (100% control)
same,post-emergence herbicidal activity index,"[8]; Table II, 0.28 kg/h",0 (0- 24% control)
same,post-emergence herbicidal activity index,"[8]; Table II, 1.12 kg/h",2 (50-74% control)
same,post-emergence herbicidal activity index,"[8]; Table II, 5.6 kg/h",3 (75-99% control)
same,post-emergence herbicidal activity index,"[9]; Table I, 5.6 kg/h",2 (50-74% control)
same,post-emergence herbicidal activity index,"[9]; Table I, 11.2 kg/h",2 (50-74% control)
same,post-emergence herbicidal activity index,"[9]; Table II, 0.28 kg/h",1 (25-49% control)
same,post-emergence herbicidal activity index,"[9]; Table II, 1.12 kg/h",1 (25-49% control)
same,post-emergence herbicidal activity index,"[9]; Table II, 5.6 kg/h",3 (75-99% control)
same,post-emergence herbicidal activity index,[10]; 0.28 kg/h,0 (0- 24% control)
same,post-emergence herbicidal activity index,[10]; 1.12 kg/h,0 (0- 24% control)
same,post-emergence herbicidal activity index,[10]; 5.6 kg/h,3 (75-99% control)
same,post-emergence herbicidal activity index,[11]; 5.6 kg/h,3 (75-99% control)
same,post-emergence herbicidal activity index,[11]; 11.2 kg/h,1 (25-49% control)
same,post-emergence herbicidal activity index,[12]; 0.28 kg/h,0 (0- 24% control)
same,post-emergence herbicidal activity index,[12]; 1.12 kg/h,1 (25-49% control)
same,post-emergence herbicidal activity index,[12]; 5.6 kg/h,3 (75-99% control)
same,post-emergence herbicidal activity index,"[13]; Table I, 5.6 kg/h",2 (50-74% control)
same,post-emergence herbicidal activity index,"[13]; Table I, 11.2 kg/h",4 (100% control)
same,post-emergence herbicidal activity index,"[13]; Table II, 0.28 kg/h",0 (0- 24% control)
same,post-emergence herbicidal activity index,"[13]; Table II, 1.12 kg/h",1 (25-49% control)
same,post-emergence herbicidal activity index,"[13]; Table II, 5.6 kg/h",2 (50-74% control)
same,post-emergence herbicidal activity index,[14]; 0.28 kg/h,0 (0- 24% control)
same,post-emergence herbicidal activity index,[14]; 1.12 kg/h,1 (25-49% control)
same,post-emergence herbicidal activity index,[14]; 5.6 kg/h,3 (75-99% control)
same,post-emergence herbicidal activity index,[15]; 0.28 kg/h,0 (0- 24% control)
same,post-emergence herbicidal activity index,[15]; 1.12 kg/h,0 (0- 24% control)
same,post-emergence herbicidal activity index,[15]; 5.6 kg/h,2 (50-74% control)
same,post-emergence herbicidal activity index,[16]; 0.28 kg/h,0 (0- 24% control)
same,post-emergence herbicidal activity index,[16]; 1.12 kg/h,0 (0- 24% control)
same,post-emergence herbicidal activity index,[16]; 5.6 kg/h,3 (75-99% control)
same,post-emergence herbicidal activity index,"[17]; Table I, 5.6 kg/h",1 (25-49% control)
same,post-emergence herbicidal activity index,"[17]; Table I, 11.2 kg/h",3 (75-99% control)
same,post-emergence herbicidal activity index,"[17]; Table II, 0.28 kg/h",0 (0- 24% control)
same,post-emergence herbicidal activity index,"[17]; Table II, 1.12 kg/h",0 (0- 24% control)
same,post-emergence herbicidal activity index,"[17]; Table II, 5.6 kg/h",2 (50-74% control)
same,post-emergence herbicidal activity index,[18]; 0.28 kg/h,0 (0- 24% control)
same,post-emergence herbicidal activity index,[18]; 1.12 kg/h,0 (0- 24% control)
same,post-emergence herbicidal activity index,[18]; 5.6 kg/h,3 (75-99% control)
same,post-emergence herbicidal activity index,[19]; 0.28 kg/h,0 (0- 24% control)
same,post-emergence herbicidal activity index,[19]; 1.12 kg/h,0 (0- 24% control)
same,post-emergence herbicidal activity index,[19]; 5.6 kg/h,3 (75-99% control)
same,post-emergence herbicidal activity index,[20]; 5.6 kg/h,1 (25-49% control)
same,post-emergence herbicidal activity index,[20]; 11.2 kg/h,2 (50-74% control)
same,pre-emergent herbicidal activity index,[21],0 (0-24% control)
same,pre-emergent herbicidal activity index,[22],1 (25-49% control)
same,pre-emergent herbicidal activity index,[23],0 (0-24% control)
same,pre-emergent herbicidal activity index,[24],0 (0-24% control)
same,pre-emergent herbicidal activity index,[25],2 (50-74% control)
same,pre-emergent herbicidal activity index,[26],0 (0-24% control)
same,pre-emergent herbicidal activity index,[27],0 (0-24% control)
same,pre-emergent herbicidal activity index,[28],0 (0-24% control)
same,pre-emergent herbicidal activity index,[29],0 (0-24% control)
same,pre-emergent herbicidal activity index,[30],0 (0-24% control)
same,pre-emergent herbicidal activity index,[31],0 (0-24% control)
